The results in this text go back to article PMC9484358 (Archives of Pharmacal Research, 2022).

One may read the inhibition as the drop in the measured response relative to a control, in per cent. One may read the IC50 as the point on the concentration scale where inhibition reaches its midpoint.

The test system of the experiment is SARS-CoV-2 spike pseudovirus. As to the kind of experiment: organism not typed. It is filed as cell-based.

Molecules are shown by their SMILES.

Consider `CC1(C)[C@@H](O[C@H]2O[C@H](C(=O)O)[C@@H](O)[C@H](O)[C@H]2O[C@@H]2O[C@H](C(=O)O)[C@@H](O)[C@H](O)[C@H]2O)CC[C@]2(C)[C@H]3C(=O)C=C4[C@@H]5C[C@@](C)(C(=O)O)CC[C@]5(C)CC[C@@]4(C)[C@]3(C)CC[C@@H]12` [Glycyrrhizic acid], for which the inhibition at 50 µM (read-out: Inhibition rate (%), 50 µM) was determined as 4.01 ± 7.03%. Besides, the inhibition at 100 µM (read-out: Inhibition rate (%), 100 µM) amounted to 11.2 ± 6.96%.

Turning to `Cc1cc(-c2ccc(/N=N/c3ccc4c(S(=O)(=O)O)cc(S(=O)(=O)O)c(N)c4c3O)c(C)c2)ccc1/N=N/c1ccc2c(S(=O)(=O)O)cc(S(=O)(=O)O)c(N)c2c1O` [Evans blue], the IC50 (read-out: IC50 value) amounted to 26.9 µM.
